Experimental data from ChEMBL document CHEMBL3763034, “Exploring the importance of zinc binding and steric/hydrophobic factors in novel HCV replication inhibitors” (Bioorg Med Chem Lett, 2016).

Key:
Hepatitis C virus [1] = test: Antiviral activity against HCV1b replicon (I389luc-ubi-neo/NS3-3/5.1) infected in Huh5-2 cells assessed as inhibition of viral RNA replication by luciferase reporter gene assay; assay type: functional, organism-based, Hepacivirus hominis; details: genotype 1b, Huh-5-2
[2] = Cytotoxicity against human Huh5-2 cells assessed as reduction in cell metabolic activity after 72 hrs by MTS assay; assay type: ADME, cell-based, Huh-5-2
[3] = Selectivity index, ratio of CC50 for human Huh5-2 cells to EC50 for hepatitis C virus genotype 1b I389luc-ubi-neo/NS3-3/5.1 replicon infected in human Huh5-2 cells; assay type: toxicity, cell-based, Huh-5-2; details: read-out: Ratio CC50/EC50
[4] = Binding affinity to zinc by UV-VIS spectroscopic analysis
Hepatitis C virus [5] = test: Antiviral activity against HCV 1b replicon (I389luc-ubi-neo/NS3-3/5.1) infected in Huh-9-13 cells assessed as inhibition of viral RNA replication by RT-PCR method; assay type: functional, organism-based, Hepacivirus hominis; details: genotype 1b
[6] = Cytotoxicity against human Huh-9-13 cells assessed as reduction in cell metabolic activity after 72 hrs by MTS assay; assay type: ADME, cell-based
[7] = Selectivity index, ratio of CC50 for human Huh-9-13 cells to EC50 for hepatitis C virus genotype 1b I389luc-ubi-neo/NS3-3/5.1 replicon infected in human Huh-9-13 cells; assay type: toxicity, cell-based; details: read-out: Ratio CC50/EC50

SMILES	EC50 (Hepatitis C virus [1]) [µM]	Kd [4] [µM]	EC50 (Hepatitis C virus [5]) [µM]	CC50 at 72 h [2] [µM]	selectivity ratio [3]	CC50 at 72 h [6] [µM]	selectivity ratio [7]
O=C(O)c1cccc2oc(-c3ccccc3O)nc12	4.9	0.5	–	25	5.1	–	–
COC(=O)c1cccc2oc(-c3ccc4ccccc4c3O)nc12	52	–	–	64	1.2	–	–
CN(C)C(=O)c1cccc2oc(-c3ccccc3O)nc12	109	–	–	> 177	> 1.6	–	–
NC(=O)c1cccc2oc(-c3ccccc3O)nc12	47	–	–	> 197	> 4.2	–	–
COC(=O)c1cccc2oc(-c3cccc4cccnc34)nc12	> 50	–	–	> 50	–	–	–
COC(=O)c1cccc2oc(-c3cc4ccccc4cc3O)nc12	31	–	–	> 50	> 1.6	–	–
COC(=O)c1cccc2oc(-c3ccccc3S)nc12	2.5	0.23	–	4.1	1.6	–	–
O=C(O)c1cccc2[nH]c(-c3ccccc3O)nc12	24	–	23	> 197	> 8.2	> 100	> 4.3
COC(=O)c1cccc2oc(-c3c(O)ccc4ccccc34)nc12	28	–	–	> 50	> 1.8	–	–

The next lines start with results.

EC50 (Hepatitis C virus [1]) [µM]	Kd [4] [µM]	EC50 (Hepatitis C virus [5]) [µM]	SMILES	CC50 at 72 h [2] [µM]	selectivity ratio [3]	CC50 at 72 h [6] [µM]	selectivity ratio [7]
7.2	–	–	CCCCNC(=O)c1cccc2oc(-c3ccccc3O)nc12	39	5.4	–	–
16	–	3.1	CNC(=O)c1cccc2[nH]c(-c3ccccc3O)nc12	> 187	> 12	47	15
2.6	–	0.6	O=C(O)c1cccc2c1nc(-c1ccccc1O)n2Cc1ccccc1	> 145	> 55	> 100	> 167
106	190	–	COC(=O)c1cccc2[nH]c(-c3ccccc3O)nc12	132	1.3	–	–
8.4	–	21	CNC(=O)c1cccc2c1nc(-c1ccccc1O)n2Cc1ccccc1	101	12	38	1.8
10	–	–	O=C(NCc1ccccc1)c1cccc2oc(-c3ccccc3O)nc12	> 50	> 5	–	–
7.5	–	0.9	COC(=O)c1cccc2c1nc(-c1ccccc1O)n2Cc1ccccc1	> 140	> 19	95	106
117	53	–	CNC(=O)c1cccc2oc(-c3ccccc3O)nc12	> 186	> 1.6	–	–
40	65	–	COC(=O)c1cccc2oc(-c3ccccc3O)nc12	71	1.8	–	–
